14 compounds from PubChem BioAssay (NCI) can be followed below.

SMILES strings stand for the structures.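 Tested at 5 concentrations; 48 h exposure; 96-well plates; endpoints linearly interpolated, else capped at highest concentration. GI50 = concentration required for 50% inhibition of growth. TGI: total growth inhibition.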 Bounds are passed on as bounds.

Some test systems named below: NCI-H23 lung; HOP-92 NSCLC; SNB-75 CNS; A549 NSCLC; SF-268 CNS; TK-10 renal; RPMI-8226 leukemia; UACC-62 melanoma; BT-549 breast; OVCAR-8 ovarian.
What all share (assay): growth of human tumour cells (NCI), 48 h

`Cn1cc(C2=C(Nc3ccccc3)C(=O)NC2=O)c2ccccc21`: the GI50 in the experiment with NCI-H23 lung, in the experiment on HOP-92 NSCLC, with SNB-75 CNS, with A549 NSCLC, in the experiment with SF-268 CNS and in the experiment on TK-10 renal was > 25 µM throughout. The GI50 in the experiment with RPMI-8226 leukemia, with UACC-62 melanoma, in the experiment with BT-549 breast and with OVCAR-8 ovarian was > 25 µM throughout. For the same compound, the TGI in the experiment on NCI-H23 lung, in the experiment with HOP-92 NSCLC, with SNB-75 CNS, in the experiment with A549 NSCLC, in the experiment on SF-268 CNS and in the experiment with TK-10 renal was > 25 µM in each case. The TGI in the experiment on RPMI-8226 leukemia, in the experiment with UACC-62 melanoma, with BT-549 breast and with OVCAR-8 ovarian was > 25 µM throughout.
With `CC1(C)O[C@@H]2C[C@H]3[C@@H]4C[C@H](F)C5=CC(=O)C=C[C@]5(C)[C@@]4(F)[C@@H](O)C[C@]3(C)[C@]2(C(=O)CO)O1`, the TGI in the experiment with NCI-H23 lung, with HOP-92 NSCLC, in the experiment with SNB-75 CNS, with A549 NSCLC, with SF-268 CNS and in the experiment on TK-10 renal was > 100 µM in each case. For the same compound, the TGI in the experiment with RPMI-8226 leukemia, in the experiment with UACC-62 melanoma, in the experiment on BT-549 breast and in the experiment with OVCAR-8 ovarian was > 100 µM throughout.
On to `O=C1c2cccnc2C(=O)c2c1c(C(=O)OCCCN1CCCCC1)c1ccccn21`, for which the GI50 with NCI-H23 lung is < 0.01 µM; in the experiment with HOP-92 NSCLC, 0.0512 µM; with SNB-75 CNS, < 0.01 µM; with A549 NSCLC, < 0.01 µM; in the experiment with SF-268 CNS it was < 0.01 µM; in the experiment on TK-10 renal, 0.0272 µM. Also, the GI50 is 0.0609 µM with RPMI-8226 leukemia, < 0.01 µM in the experiment on UACC-62 melanoma, 0.108 µM with BT-549 breast and 0.0102 µM with OVCAR-8 ovarian. For the same compound, the TGI in the experiment on NCI-H23 lung was 0.026 µM; with HOP-92 NSCLC, 0.913 µM; in the experiment on SNB-75 CNS, < 0.0187 µM; with A549 NSCLC, < 0.0182 µM; in the experiment with SF-268 CNS, 0.207 µM; with TK-10 renal it was 4.18 µM. For the same compound, the values for the TGI in the experiment on UACC-62 melanoma, in the experiment on BT-549 breast and in the experiment with OVCAR-8 ovarian were 0.0478 µM, 2.78 µM and 1.19 µM, respectively.
Turning to `O=C(CC1C=Cc2ccccc2N1C(=O)c1ccccc1)c1ccccc1` (centres undefined), the TGI in the experiment on NCI-H23 lung was > 100 µM; with HOP-92 NSCLC it was 86 µM; in the experiment on SNB-75 CNS it was > 100 µM; in the experiment on A549 NSCLC, > 100 µM; with SF-268 CNS, > 100 µM; in the experiment with TK-10 renal, > 100 µM. The TGI in the experiment with RPMI-8226 leukemia was 39.9 µM; with UACC-62 melanoma it was 28.5 µM; in the experiment with BT-549 breast, 69.7 µM; in the experiment with OVCAR-8 ovarian, > 100 µM.
For `CC(=O)OC1=CC2(OC(C)=O)CC(C)(C)C1C1C(=O)C=CC(=O)C12` (centres undefined), the TGI in the experiment with NCI-H23 lung, in the experiment on HOP-92 NSCLC, in the experiment with SNB-75 CNS, in the experiment on A549 NSCLC, in the experiment on SF-268 CNS and in the experiment on TK-10 renal was > 100 µM in each case. Also, the TGI was > 100 µM with RPMI-8226 leukemia, 56.7 µM in the experiment on UACC-62 melanoma, 32.3 µM in the experiment on BT-549 breast and > 100 µM in the experiment with OVCAR-8 ovarian.
`CN(C)c1ccc(/C=N/S(=O)(=O)c2ccc(-n3c(-c4ccccc4)nc4c(Br)cc(Br)cc4c3=O)cc2)cc1`: the GI50 with NCI-H23 lung is 37.7 µM; in the experiment with HOP-92 NSCLC, 22.7 µM; with SNB-75 CNS, 24.7 µM; in the experiment with A549 NSCLC, 34 µM; in the experiment on SF-268 CNS, 48.5 µM; in the experiment with TK-10 renal, 45.8 µM. The GI50 was 4.27 µM in the experiment on RPMI-8226 leukemia, 28.3 µM in the experiment with UACC-62 melanoma, 30.6 µM in the experiment with BT-549 breast and 34.2 µM with OVCAR-8 ovarian. Further, the TGI was 92.6 µM in the experiment on NCI-H23 lung; 71.6 µM in the experiment on HOP-92 NSCLC; 71.3 µM with SNB-75 CNS; > 100 µM in the experiment with A549 NSCLC; > 100 µM in the experiment with SF-268 CNS; > 100 µM with TK-10 renal. Besides, the TGI was > 96.4 µM with RPMI-8226 leukemia, > 92.8 µM in the experiment on UACC-62 melanoma, > 68.8 µM in the experiment on BT-549 breast and > 100 µM with OVCAR-8 ovarian.
As for `CC1=Nc2c([nH]c(=S)[nH]c2=O)NC(c2c(Cl)cccc2Cl)C1` (centres undefined), the TGI in the experiment with NCI-H23 lung came to 7.4 µM; with HOP-92 NSCLC it was 17.2 µM; in the experiment on SNB-75 CNS it was 10.6 µM; in the experiment with A549 NSCLC it was 15 µM; with SF-268 CNS it was 3.96 µM; in the experiment on TK-10 renal, 18 µM. The TGI with RPMI-8226 leukemia came to 4.04 µM; in the experiment with UACC-62 melanoma, 4.45 µM; in the experiment on BT-549 breast it was 2.64 µM; in the experiment on OVCAR-8 ovarian it was 1.85 µM.
With `CC1OC(CC(=O)O)CC2=C1C(=O)c1c(O)cccc1C2=O` (centres undefined), the TGI with NCI-H23 lung stood at 1.51 µM; in the experiment on HOP-92 NSCLC, 0.331 µM; in the experiment with SNB-75 CNS, 2.86 µM; with A549 NSCLC it was 7.96 µM; with SF-268 CNS, 1.33 µM; with TK-10 renal it was 1.82 µM. Moreover, the TGI with RPMI-8226 leukemia is 0.241 µM; in the experiment on UACC-62 melanoma, 0.268 µM; with BT-549 breast it was 0.361 µM; in the experiment on OVCAR-8 ovarian, 1.1 µM.
As to `CC1SC2(CCCCC2)N(NC(=O)c2[nH]c3ccc(Br)cc3c2-c2ccccc2)C1=O` (centres undefined), the GI50 in the experiment with NCI-H23 lung is 30.7 µM; in the experiment on HOP-92 NSCLC, 14.6 µM; in the experiment with SNB-75 CNS, 22.6 µM; in the experiment on A549 NSCLC, 15.7 µM; with SF-268 CNS, 75.6 µM; in the experiment with TK-10 renal, 26.2 µM. Further, the GI50 with RPMI-8226 leukemia is 3.83 µM; in the experiment with UACC-62 melanoma, 9.66 µM; with BT-549 breast, > 100 µM; in the experiment on OVCAR-8 ovarian, 17 µM. Besides, the TGI in the experiment with NCI-H23 lung is > 100 µM; in the experiment on HOP-92 NSCLC it was 64.8 µM; in the experiment on SNB-75 CNS, 90 µM; in the experiment with A549 NSCLC it was > 100 µM; in the experiment with SF-268 CNS, > 100 µM; in the experiment with TK-10 renal, > 100 µM. Moreover, the TGI in the experiment on RPMI-8226 leukemia was 30.2 µM; with UACC-62 melanoma, > 100 µM; in the experiment with BT-549 breast it was > 100 µM; in the experiment on OVCAR-8 ovarian, 53.8 µM.
Turning to `O=[N+]([O-])c1cc2no[n+]([O-])c2cc1N1CCCCC1`, the TGI came to 43.4 µM in the experiment on NCI-H23 lung; 7.04 µM in the experiment with HOP-92 NSCLC; 9.8 µM with SNB-75 CNS; 42.8 µM in the experiment with A549 NSCLC; 41.2 µM with SF-268 CNS; 9.08 µM with TK-10 renal. Moreover, the TGI was determined as 6.64 µM in the experiment on RPMI-8226 leukemia, 33.8 µM with UACC-62 melanoma, 45.2 µM in the experiment with BT-549 breast and 5.74 µM in the experiment on OVCAR-8 ovarian.
On to `CCSC[C@@H]1C[C@](O)(c2ccc(F)cc2)[C@@H](c2ccc(F)cc2)O1`, for which the GI50 is 19.1 µM with NCI-H23 lung; 15.2 µM with HOP-92 NSCLC; 16.3 µM in the experiment with SNB-75 CNS; 18.7 µM with A549 NSCLC; 14.7 µM in the experiment on SF-268 CNS; 19.2 µM with TK-10 renal. Moreover, the GI50 is 14.9 µM with RPMI-8226 leukemia, 13.4 µM in the experiment on UACC-62 melanoma, 16.8 µM in the experiment with BT-549 breast and 23.6 µM in the experiment with OVCAR-8 ovarian. Further, the TGI with NCI-H23 lung was 46.6 µM; with HOP-92 NSCLC, 28.6 µM; with SNB-75 CNS it was 31.1 µM; in the experiment on A549 NSCLC it was 44 µM; in the experiment on SF-268 CNS it was 29.6 µM; in the experiment on TK-10 renal, 34.5 µM. The TGI with RPMI-8226 leukemia was 36.1 µM; in the experiment with UACC-62 melanoma, 27.4 µM; in the experiment with BT-549 breast, 30.9 µM; in the experiment with OVCAR-8 ovarian, > 64.6 µM.
Consider `CC(=O)Nc1n[n+]([O-])c2cc(C)ccc2[n+]1[O-]`, for which the TGI in the experiment on NCI-H23 lung came to 9.32 µM; in the experiment on HOP-92 NSCLC, 7.29 µM; with SNB-75 CNS it was 12 µM; with A549 NSCLC, 12.3 µM; with SF-268 CNS, 19.7 µM; in the experiment with TK-10 renal, 58.1 µM. Further, the TGI in the experiment with RPMI-8226 leukemia is > 100 µM; in the experiment with UACC-62 melanoma, 6.04 µM; with BT-549 breast it was 14.2 µM; in the experiment on OVCAR-8 ovarian, 16.3 µM.
As for `CN(C)c1cccc(F)c1C(=O)NC(=O)Nc1ccc(Cl)cc1`, the TGI is > 100 µM in the experiment with NCI-H23 lung; > 100 µM with HOP-92 NSCLC; 9.12 µM with SNB-75 CNS; > 100 µM in the experiment on A549 NSCLC; > 100 µM in the experiment on SF-268 CNS; > 100 µM in the experiment on TK-10 renal. Besides, the TGI with RPMI-8226 leukemia was > 36.6 µM; with UACC-62 melanoma, > 100 µM; with BT-549 breast it was > 100 µM; in the experiment with OVCAR-8 ovarian, > 86.4 µM.
For `COc1ccc(-c2csc(NC(=O)CN3CCN(c4cc5c(cc4F)c(=O)c(C(=O)O)cn5C4CC4)CC3)n2)cc1`, the GI50 is 2.9 µM in the experiment with NCI-H23 lung; 2.82 µM in the experiment on HOP-92 NSCLC; 3.31 µM with SNB-75 CNS; 3.47 µM in the experiment with A549 NSCLC; 4.28 µM in the experiment on SF-268 CNS; 4.62 µM with TK-10 renal. The GI50 was 2.69 µM with RPMI-8226 leukemia, 4.18 µM with UACC-62 melanoma, 3.03 µM with BT-549 breast and 3.2 µM with OVCAR-8 ovarian. The TGI was > 100 µM in the experiment on NCI-H23 lung; 7.17 µM in the experiment on HOP-92 NSCLC; 34.2 µM with SNB-75 CNS; > 100 µM in the experiment on A549 NSCLC; > 100 µM in the experiment on SF-268 CNS; 22.9 µM with TK-10 renal. Also, the TGI in the experiment with RPMI-8226 leukemia, with UACC-62 melanoma, in the experiment with BT-549 breast and in the experiment with OVCAR-8 ovarian was > 100 µM in each case.
